The values below come from US20090257975A1, “Solid and Semi-Solid Polymeric Ionic Conjugates” (Pfizer Inc, priority 2002, published 2009).

This series in a line: Solubility determination of ziprasidone in pH 7.4 PBS (shaken vials, HPLC). It is filed as physicochemical. Particulars: concentration of ziprasidone in solution. Here is the method: The following samples were evaluated for solubility: • 1. Ziprasidone-polymer ionic conjugate FIVE (40% ziprasidone, 60% polymer composed of Lactide/Glycolide/Malic acid at molar ratios of 4:1:0.65M) • 2. Ziprasidone-polymer ionic conjugate in gel former (Solution of Conjugate FIVE in a typical gel former, The conjugate was dissolved in a mixture (1:1 by weight) with a mixture of two gel formers made individually of PEG-400 grafted with Trimethylene carbonate/Caprolactone/Glycolide and PEG-400 grafted with Lactide/Glycolide • 3. Ziprasidone mesylate salt • 4. Ziprasidone free base
Excess of each of the above sample were placed in a screw-cap vial with 2 ml of pH 7.4, PBS (Dulbecco's Phosphate-Buffered Saline) solution, and the vials were shaken continuously for 7 days. Ziprasidone free base and its mesylate salt were used as controls. The concentration of ziprasidone in solution was determined at 15 minutes, 6 hours, 24 hours, and 7 days. The HPLC samples were prepared by filtering each suspension through a 0.22-μm syringe filter without any additional dilutions

Converted amounts (≈) assume the structure as drawn. Structures can show the parent of a compound that is named as a salt.

In the case of `O=C1Cc2cc(CCN3CCN(c4nsc5ccccc45)CC3)c(Cl)cc2N1` [Ziprasidone Free Base, 5-[2-[4-(1,2-benzisothiazol-3-yl)-1-piperazinyl]ethyl]-6-chloro-1,3-dihydro-2H-indol-2-one], the solubility at 6 h (Dulbecco's phosphate-buffered saline (PBS), aqueous buffer, thermodynamic from solid, time point 6 hours) was found to be 0.2 µg/mL (≈ 0.484 µM). The Solubility entry is, setting by setting: (time point 15 minutes) “Below”; (time point 7 days) “Below”.

Take `O=C1Cc2cc(CCN3CCN(c4nsc5ccccc45)CC3)c(Cl)cc2N1` [Ziprasidone Mesylate]: the solubility at 15 min (Dulbecco's phosphate-buffered saline (PBS), aqueous buffer, thermodynamic from solid, time point 15 minutes) turned out to be 1.5 µg/mL. Moreover, the Solubility runs as follows: (time point 6 hours) 1.1 µg/mL; (time point 7 days) 1.3 µg/mL.
